For one assay, the system named is MDA-MB-231 cells. Briefly: Spheroid formation, hanging drop method. The format is cell-based, human. As to conditions: before trituration. On the procedure:
FIG. 6: IODVA1 inhibits cell-substratum and cell-cell interactions. (A) IODVA1 impedes spreading of MCF7 and MDA-MB-231 cells on fibronectin. MCF7, T47D, and MDA-MB-231 cells were incubated on fibronectin coated coverslips for 10 min, then further incubated with the indicated concentrations of IODVA1 for 30 min in serum-free media, fixed and observed by bright field microscopy. Areas of single cells were calculated from 6 random fields (no less than 300 cells total per treatment group). Results shown are mean±s.e.m. of a single experiment and are representative of three independent experiments. (B) Effects of IODVA1 treatment on spheroid formation in MCF10A, MCF7, T47D, and MDA-MB-231 cells. […] Aggregates and spheroids were dissociated with accutase and trituration, and the number of live cells was determined by trypan blue exclusion. […]
Spheroids were formed by the hanging drop method or using ultra-low attachment (ULA) plates (Corning). […] Spheroid formation was monitored daily and imaged using EVOS microscope (Life Technologies). For assessment of attachment-free proliferation, the contents of the well were transferred into an Eppendorf tube, centrifuged at 100×g for 5 min, dissociated into a single cell suspension using trituration and Accutase (Invitrogen) treatment at room temperature and counted using trypan blue exclusion.

Assay [1] concerns Vav3−/− leukemic cells expressing ΔCH Vav3. Nature of the assay: Vav3 rescue, colony formation assay. The settings on record: 1, 5, and 10 μM. The format is cell-based, murine. The source says:
(§1) FIG. 15: Expression of transgenic Vav3 re-sensitizes Vav3-deficient cells to IODVA1. (A) Vav3 domain structure, calponin-homology (CH), acidic region (Ac), Dbl-homology (DH), pleckstrin-homology (PH), zinc finger (ZF), Src-homology 2 and 3 (SH2/SH3). (B) Representative histogram data of the cell cycle analysis of wild-type (Vav3^+/+) and Vav3-deficient (Vav3^−/−) p190-BCR-ABL1 leukemic bone marrow cells expressing empty vector, full-length Vav3 or ΔCH mutant and treated with vehicle control (black) or IODVA1 at 5 (red) or 10 μM (dark grey) for 18 h. (C) Quantification of the average number of colonies made by bone marrow wild-type and Vav3^−/− p190-BCR-ABL1 leukemic bone marrow cells expressing empty vector, full-length Vav3 or ΔCH mutant and treated with vehicle control (black) or IODVA1 at 1 (light salmon), 5 (red) and 10 μM (dark grey). *** p≤0.001. […]
(§2) For Vav3 rescue experiments, low density bone marrow cells from wild-type ([…]) or Vav3^−/− mice were transduced with bicistronic retroviral vector encoding p190 BCR-ABL1-IRES-YFP (yellow fluorescent protein) and YFP^+ cells were sorted 48 h post-transduction. […] Cell cycle was analyzed at 18 h post BrdU incorporation. […]

Assay [2] relates to Vav3−/− leukemic cells expressing full-length Vav3. Nature of the assay: Vav3 rescue, colony formation assay. The format is cell-based, murine. As to conditions: 10 μM; 200 with vehicle.
Description: as §1, §2

Data on one molecule can be found in US11564913B2, “Compositions and methods for treating cancer” (Children's Hospital Medical Center, priority 2019, dated 2023).

With `OC1(c2ccccn2)N=C(Nc2nc3ccccc3[nH]2)N=C1c1ccccn1` (stereo not drawn) [IODVA1, (Z)-2-((1H-benzo[d]imidazol-2-yl)imino)-4,5-di(pyridin-2-yl)-2,5-dihydro-1H-imidazol-5-ol], the aggregate formation result with MDA-MB-231 cells is on record as “not affected”. In addition, in assay [1], the “response in colony formation” value is recorded as “respond less”. In addition, the number of colonies in assay [2] is recorded as 75 colonies.
